From patent US20060135480A1, “Derivatives of succinic and glutaric acids and analogs thereof useful as inhibitors of phex” (Enobia Pharma, priority 2002, published 2006)

Target: T1, sPHEX (Homo sapiens, UniProt P78562)
T1 construct: The soluble form of the metallopeptidase PHEX (sPHEX) was purified to homogeneity; made in house
T1 sequence (P78562 53-749 limits assumed): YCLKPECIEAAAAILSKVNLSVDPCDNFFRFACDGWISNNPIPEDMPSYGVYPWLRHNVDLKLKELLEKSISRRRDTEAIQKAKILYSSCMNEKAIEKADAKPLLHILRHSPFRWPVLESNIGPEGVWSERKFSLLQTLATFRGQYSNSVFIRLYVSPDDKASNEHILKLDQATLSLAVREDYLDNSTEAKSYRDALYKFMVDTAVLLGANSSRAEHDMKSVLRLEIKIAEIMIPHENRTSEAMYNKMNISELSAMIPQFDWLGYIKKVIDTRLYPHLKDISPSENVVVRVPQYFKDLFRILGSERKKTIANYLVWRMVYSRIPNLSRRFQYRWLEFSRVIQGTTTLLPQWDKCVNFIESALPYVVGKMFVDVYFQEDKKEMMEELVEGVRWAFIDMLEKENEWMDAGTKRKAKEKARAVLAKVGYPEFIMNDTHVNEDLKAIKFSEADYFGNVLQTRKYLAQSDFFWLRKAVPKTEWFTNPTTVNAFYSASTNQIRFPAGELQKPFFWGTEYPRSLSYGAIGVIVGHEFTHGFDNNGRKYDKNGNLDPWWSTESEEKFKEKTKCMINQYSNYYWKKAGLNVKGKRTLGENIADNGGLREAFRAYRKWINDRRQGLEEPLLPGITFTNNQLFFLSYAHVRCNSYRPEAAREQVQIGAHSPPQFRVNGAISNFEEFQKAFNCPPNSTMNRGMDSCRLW
Experiment: sPHEX inhibitor IC50 determination using a fluorogenic substrate (Abz-GFSDYK-Dnp, S3)
Format: biochemical
Details: fluorogenic substrate 20 μM, 100 ng sPHEX, pH 6.5
Experimental: The soluble form of the metallopeptidase PHEX (sPHEX) was purified to homogeneity according to the methods of Boileau and Crine (WO 00/50580). sPHEX quantity was measured with the Bradford assay (BioRad) using BSA as a standard.
sPHEX activity was determined using a fluorogenic substrate in which an increase of fluorescence was proportional to substrate conversion to products.
S3 was synthesized at Dr. Gilles Lajoie's laboratories (University of Western Ontario, Canada) by standard solid phase peptide synthesis. The fluorescent reaction product was excited at 320 nm to fluoresce at 420 nm. Fluorescence was recorded at 420 nm every five minutes over a one-hour period on a fluorescence plate reader (Perkin-Elmer, HTS-7000) to calculate the initial rate of the reaction. Typically, the reaction was carried out in 200 μl of buffer M (50 mM Mes(NaOH) pH 6.5, 150 mM NaCl) containing 100 ng of purified sPHEX and 20 μM of fluorigenic substrate to initiate the reaction. Enzymatic activity was determined by subtracting either the initial rate of substrate in buffer (solvolysis), or the typical reaction rate in which 5 mM EDTA was added prior to initiating the reaction.
sPHEX inhibitor IC50 determinations were done using the tested inhibitor at various concentrations coming from a serial dilution (usually ranging from 10^−3 M to 10^−12 M) in the reaction described above. IC50 values were calculated using the iterative four parameters non-linear regression formula from the GraphPad™ software (Prism).

| Structure (SMILES) | IC50 |
| --- | --- |
| O=C(O)CC[C@H](NC(=O)[C@@H](S)Cc1ccccc1)C(=O)N[C@@H](Cc1c[nH]c2ccccc12)C(=O)O [Example 114] | 320 nM |
| O=C(O)C[C@H](NC(=O)[C@@H](S)Cc1ccccc1)C(=O)N[C@H](CO)Cc1ccccc1 [Example 111, N-(1-Benzyl-2-hydroxy-ethyl)-3-(2-mercapto-3-phenyl-propionylamino)-succinamic acid] | 90 nM |
| O=C(O)CC(CC(=O)O)C(=O)NCCc1ccc2ccccc2c1 [Example 169, 3-(2-Naphthalen-2-yl-ethylcarbamoyl)-pentanedioic acid] | 19000 nM |
| C[C@H](S)C(=O)N[C@@H](CC(=O)O)C(=O)N[C@@H](Cc1c[nH]c2ccccc12)C(=O)O [Example 90, N-[1-Carboxy-2-(1H-indol-3-yl)-ethyl]-3-(2-mercapto-propionylamino)-succinamic acid] | 68 nM |
| O=C(O)CC(CC(=O)NO)C(=O)NCCCCCO (centres unmarked) [Example 148, 4-Hydroxycarbamoyl-3-(5-hydroxy-pentylcarbamoyl)-butyric acid] | 1700 nM |
| O=C(O)CC(CCC(=O)NO)C(=O)NCCc1ccc(-c2ccccc2)cc1 (centres unmarked) [Example 152, 3-(2-Biphenyl-4-yl-ethylcarbamoyl)-5-hydroxycarbamoyl-pentanoic acid] | 1300 nM |
| O=C(O)C[C@H](NC(=O)[C@@H](S)Cc1ccccc1)C(=O)NCCc1c[nH]c2ccccc12 [Example 118, N-[2-(1H-indol-3-yl)l-ethyl]-3-(2-mercapto-3-phenyl-propionylamino)-succinamic acid] | 140 nM |
| O=C(O)C[C@H](NC(=O)[C@@H](S)CO)C(=O)N[C@@H](Cc1c[nH]c2ccccc12)C(=O)O [Example 93, N-[1-Carboxy-2-(1H-indol-3-yl)-ethyl]-3-(3-hydroxy-2-mercapto-propionylamino)-succinamic acid] | 48 nM |
| CC(C)C[C@H](S)C(=O)N[C@@H](CC(=O)O)C(=O)N[C@@H](Cc1c[nH]c2ccccc12)C(=O)O [Example 91, N-[1-Carboxy-2-(1H-indol-3-yl)-ethyl]-3-(2-mercapto-4-methyl-pentanoylamino)-succinamic acid] | 94 nM |
| O=C(O)C[C@H](NC(=O)[C@@H](S)Cc1ccccc1)C(=O)N[C@@H](CO)C(=O)O [Example 107, N-(1-Carboxy-2-hydroxy-ethyl)-3-(2-mercapto-3-phenyl-propionylamino)-succinamic acid] | 170 nM |
| O=C(O)C[C@H](NC(CCc1ccccc1)P(=O)(O)O)C(=O)N[C@@H](Cc1c[nH]c2ccccc12)C(=O)O (some centres unmarked) [Example 162, N-[1-carboxy-2-(1H-indol-3-yl)-ethyl]-3-(3-phenyl-1-phosphono-propylamino)-succinic acid] | 9700 nM |
| O=C(O)CC(CC(=O)NO)C(=O)NCCc1ccc(-c2ccc(O)cc2)cc1 (centres unmarked) [Example 140, 3-[2-(4′-Hydroxy-biphenyl-4-yl)-ethylcarbamoyl]4-hydroxycarbamoyl-butyric acid] | 360 nM |
| O=C(O)C[C@H](NC(=O)CS)C(=O)N[C@@H](Cc1c[nH]c2ccccc12)C(=O)O [Example 87, N-[1-Carboxy-2-(1H-indol-3-yl)-ethyl]-3-(2-mercapto-acetylamino)-succinamic acid] | 600 nM |
| O=C(O)C[C@H](NC(=O)[C@@H](S)Cc1ccccc1)C(=O)N[C@@H](Cc1ccc(-c2ccccc2)cc1)C(=O)O [Example 110, N-(2-Biphenyl-4-yl-1-Carboxy-ethyl)-3-(2-mercapto-3-phenyl-propionylamino)-succinamic acid] | 38 nM |
| O=C(O)CC(CC(=O)NO)C(=O)NCCc1ccc(-c2ccccn2)cc1 (centres unmarked) [Example 132, 4-Hydroxycarbamoyl-3-[2-(4-pyridin-2-yl-phenyl)-ethylcarbamoyl]-butyric acid] | 240 nM |
| O=C(O)CC(CC(=O)NO)C(=O)NCc1ccc(-c2ccccc2)cc1 (centres unmarked) [Example 150, 3-[(Biphenyl-4-ylmethyl)-carbamoyl]-4-hydroxycarbamoyl-butyric acid] | 270 nM |
| COC(=O)[C@H](Cc1c[nH]c2ccccc12)NC(=O)[C@H](CC(=O)O)NC(=O)CS [Example 117, N-[2-(1H-indol-3-yl)-methoxycarbonyl-etjyl]-3-(2-mercapto-acetylamino)-succinamic acid] | 2600 nM |

The next molecules have a lower IC50 than those just listed; values first:

| IC50 | Structure (SMILES) |
| --- | --- |
| 20 nM | O=C(O)C[C@H](NC(=O)[C@@H](S)CC1CCCCC1)C(=O)N[C@@H](Cc1c[nH]c2ccccc12)C(=O)O [Example 102, N-[1-Carboxy-2-(1H-indol-3-yl)-ethyl]-3-(3-cyclohexyl-2-mercapto-propionylamino)-succinamic acid] |
| 18 nM | COc1ccc(C[C@H](S)C(=O)N[C@@H](CC(=O)O)C(=O)N[C@@H](Cc2c[nH]c3ccccc23)C(=O)O)cc1 [Example 101, N-[1-Carboxy-2-(1H-indol-3-yl)ethyl]-3-[2-mercapto-3-(methoxy-phenyl)-propionylamino]-succinamic acid] |
| 15 nM | O=C(O)C[C@H](NC(=O)[C@@H](S)Cc1ccc2ccccc2c1)C(=O)N[C@@H](Cc1c[nH]c2ccccc12)C(=O)O [Example 104, N-[1-Carboxy-2-(1H-indol-3-yl)-ethyl]-3-(2-mercapto-3-naphthalen-2-yl-propionylamino]-succinamic acid] |
| 15 nM | O=C(O)C[C@@H](NC(=O)[C@@H](S)Cc1ccccc1)C(=O)N[C@@H](Cc1c[nH]c2ccccc12)C(=O)O [Example 112, N-[1-Carboxy-2-(1H-indol-3-yl)-ethyl]-3-(2-mercapto-3-phenyl-propionylamino)-succinamic acid] |
| 11 nM | O=C(O)C[C@H](NC(=O)[C@@H](S)Cc1ccccc1)C(=O)N[C@@H](Cc1c[nH]c2ccccc12)C(=O)O [Example 89, N-[1-Carboxy-2-(1H-indol-3-yl)-ethyl]-3-(2-mercapto-3-phenyl-propionylamino)-succinamic acid] |
| 8 nM | O=C(O)C[C@H](NC(=O)[C@@H](S)Cc1ccc(OCc2ccccc2)cc1)C(=O)N[C@@H](Cc1c[nH]c2ccccc12)C(=O)O [Example 99, 3-(3-(4-Benzyloxy-phenyl)-2-mercapto-propionylamino)-N-[1-Carboxy-2-(1H-indol-3-yl)-ethyl]-succinamic acid] |
| 7 nM | CCCC[C@H](S)C(=O)N[C@@H](CC(=O)O)C(=O)N[C@@H](Cc1c[nH]c2ccccc12)C(=O)O [Example 95, N-[1-Carboxy-2-(1H-indol-3-yl)-ethyl]-3-(2-mercapto-hexanoylamino)-succinamic acid] |
| 6 nM | O=C(O)C[C@H](NC(=O)[C@@H](S)Cc1ccccc1)C(=O)N[C@@H](Cc1ccc2ccccc2c1)C(=O)O [Example 106, N-(1-Carboxy-2-naphthalen-2-yl-ethyl)-3-(2-mercapto-3-phenylpropionylamino)-succinamic acid] |
| 4 nM | O=C(O)C[C@H](NC(=O)[C@@H](S)Cc1ccccc1)C(=O)N[C@@H](Cc1c[nH]c2ccccc12)C(=O)N[C@@H](CO)C(=O)O [Example 116, N-[1-(1-Carboxy-2-hydroxy-ethylcarbamoyl)-2-(1H-indol-3-yl)-ethyl]-3-(2-mercapto-3-phenyl-propionylamino)-succinamic acid] |
| 4 nM | C[C@H](O)[C@H](S)C(=O)N[C@@H](CC(=O)O)C(=O)N[C@@H](Cc1c[nH]c2ccccc12)C(=O)O [Example 94, N-[1-Carboxy-2-(1H-indol-3-yl)-ethyl]-3-(3-hydroxy-2-mercapto-butyrylamino)-succinamic acid] |
| 4 nM | O=C(O)C[C@H](NC(=O)[C@@H](S)CCc1ccccc1)C(=O)N[C@@H](Cc1c[nH]c2ccccc12)C(=O)O [Example 96, N-[1-Carboxy-2-(1H-indol-3-yl)-ethyl]-3-(2-mercapto-4-phenyl-butyrylamino)-succinamic acid] |
| 3 nM | O=C(O)C[C@H](NC(=O)[C@@H](S)c1ccccc1)C(=O)N[C@@H](Cc1c[nH]c2ccccc12)C(=O)O [Example 97, N-[1-Carboxy-2-(1H-indol-3-yl)-ethyl]-3-(2-mercapto-2-phenyl-acetylamino)-succinamic acid] |
